According to PMC7297445, “Pharmacokinetic/Pharmacodynamic Determination and Preclinical Pharmacokinetics of the β-Lactamase Inhibitor ETX1317 and Its Orally Available Prodrug ETX0282” (ACS Infectious Diseases, 2020):
Like-named read-outs stand apart in the source and are kept apart here.

Tests used:
Plasma protein binding [1] = format: in vitro ADME, dog
Experimental: (§1) Plasma protein binding was determined by rapid equilibrium dialysis. Plasma was freshly prepared from blood samples drawn in to EDTA (anticoagulant) containing tubes. Plasma was prepared using a table-top centrifuge and spun per instruction of the tube manufacturer and specifications (Beckton, Dickinson and Company, Franklin Lakes, NJ) and placed on ice prior to use.
(§2) Pooled plasma samples were centrifuged at 2000 rpm (approximately 1400g) for 15 min at 4 °C to remove debris. Approximately 90% of the clear supernatant fraction was transferred to a separate tube. Samples (500 μL) were then spiked with a 100× stock solution 100 μM, 0.5 mM, and 10 mM ETX1317 in DMSO respectively for 1, 5, and 100 μM final concentrations, transferred to the top of the filter chambers, and allowed to equilibrate for 15 min prior to centrifugation. The filtrate tubes were centrifuged at 14000g for 15 min at 4 °C. Next, 50 μL of the filtrate was precipitated with 300 μL of acetonitrile containing 250 ng/mL of carbutamide as the internal standard and the samples were analyzed by LC/MS/MS analysis.

Excretion into the bile = details: in vivo
Experimental: Based upon the non-clinical PK data, a range of 60–80% bioavailability and a moderate absorption rate of 0.5–1.0 h^–1 have been considered for humans. In consideration of these predicted parameters, mean percent fT > CT of 1 μg/mL (2× MIC of 0.5 μg/mL) estimates for a 500 mg ETX1317 equiv q12h dose of ETX0282 are summarized in Table S3.

[2] = Intravenous pharmacokinetics of ETX1317; format: in vivo; details: male, dog, i.v. 1 mg/kg
Experimental: Intravenous pharmacokinetics of ETX1317 investigated in jugular vein cannulated male Sprague–Dawley rats (Charles River Laboratories, n = 3/route) at a dose of 10 mg/kg formulated in 0.9% saline. Oral pharmacokinetics of ETX0282 was evaluated at a 10 mg/kg equivalent dose of ETX1317 formulated in 25:75 PEG 400:WFI. The pH of each formulation was verified to fall within a range of 4–7 and were confirmed to be in solution prior to dosing. Potency was verified by LC/MS/MS. Dose volumes were 5 and 10 mL/kg for ETX1317(i.v.) and ETX0282(p.o.), respectively for rats. In both dog (male, 3/route) and monkey (male, 3/route) studies, i.v. and p.o. doses were formulated on 25:75 PEG 400:WFI (pH ∼5) and administered at a dose of ∼1 mg/kg. Dose volume was 1 mL/kg for both routes in dogs and monkeys with the i.v. dose infused over 15 min. For oral doses, gavage tubes were flushed with 10 mL after administration of the dose. i.v. doses were sterile-filtered through 0.22 μm PVDF membrane prior to administration into the cephalic vein.
Blood sampling (∼1 mL) for dogs and monkeys was carried out via venipuncture of the jugular vein at the following time points:
i.v.: pre-dose, 0.083, 0.25 (prior to end of infusion), 0.5, 1, 1.5, 2, 4, 6, 8, 12, and 24 h post-dose
Blood samples were centrifuged at 3200 rpm for 10 min at approximately 5 °C. Plasma samples (500 μL) were transferred to 96-well plate tubes (MatrixTech, 0.5 mL). An equal amount (500 μL) of SIGMAFAST protease inhibitor solution (1 tablet dissolved in 10 mL distilled water, Sigma-Aldrich Part No. S8820) was added as a preservative to the 96-well plate tubes resulting in a 1:1 dilution. Diluted plasma samples were stored at −80 ± 10 °C.
Urine collection was collected directly into Nalgene bottles placed under metabolism cages with frozen ice packs to chill urine over the collection interval. Urine was collected 0–12, and 12–24 h post-dose. Following collection of each urine sample, the total urine weight was recorded and 3 mL aliquots were retained for LC/MS/MS analysis.
Non-compartmental analysis of time vs concentration data for ETX1317, ETX0282, CPD, and CPDP was completed using WinNonlin 8.1 (Pharsite Corporation, Mountain View CA). The maximum concentration (Cmax) was the highest observed concentration; Tmax was the earliest time at which Cmax occurred; and the elimination half-life was estimated as ln 2/kel, where kel is the elimination rate constant derived from the slope of the log concentration versus time profile. The area under the concentration–time curve from 0 h to the last time point (AUC0-tlast) was calculated by linear trapezoidal approximation. Clearance (CL) was estimated as Dose/AUC0-tlast and the steady state volume of distribution (Vd,ss) was estimated as CL* MRT, where MRT = AUMC/AUC (MRT = mean residence time and AUMC = area under the moment curve). Oral bioavailability (F) was determined from ETX1317 concentrations and normalizing doses to free acid equivalence, where F = AUCp.o.*(dosei.v.)/AUCi.v.*(dosep.o.).

Plasma protein binding [3] = format: in vitro ADME, monkey
Experimental: as §1, §2

[4] = Plasma protein binding across species; format: in vitro ADME, monkeys, humans, mice, rats, and dogs; details: monkey, human, mouse, rat, dog, range across species, 1 to 100 μM
Experimental: Intravenous and oral pharmacokinetics of ETX1317 and ETX0282 in preclinical species are summarized in Table 7 and Table S1, respectively. Time vs concentration profiles are depicted graphically in Figure S1.
as §1, §2

[5] = Mouse oral pharmacokinetics (satellite infected animals); format: in vivo
Plasma protein binding [6] = format: in vitro ADME, rat
Experimental: as §1, §2

Plasma protein binding [7] = format: in vitro ADME, mouse
Experimental: as §1, §2

[8] = unbound ETX1317 after oral ETX0282 10 mg/kg
[9] = unbound ETX1317 after oral ETX0282 50 mg/kg
[10] = unbound ETX1317 after oral ETX0282 200 mg/kg
[11] = unbound ETX1317 after oral ETX0282 400 mg/kg

Compound: CC1=C[C@@H](C(N)=O)N2C[C@@H]1N(O[C@H](F)C(=O)O)C2=O [ETX1317]
- Proportion unbound (Plasma protein binding [1]; 1 µM): 92%
- Proportion unbound (Plasma protein binding [1]; 5 µM): 100%
- Proportion unbound (Plasma protein binding [1]; 100 µM): 81%
- excretion into the bile (Excretion into the bile): minimal excretion
- AUC ([2]; plasma): 2760 ± 340 ng·h/mL
- Cmax ([2]; plasma): 2270 ± 490 ng/mL
- half-life ([2]; plasma): 48 ± 6 min
- clearance ([2]; plasma, read-out: CL): 5.7 ± 0.7 mL/min/kg
- Vd ([2]; plasma, read-out: Vd,ss): 0.38 ± 0.05 L/kg
- clearance ([2]; urine and plasma, read-out: renal CL): 1.1 ± 0.3 mL/min/kg
- Proportion unbound (Plasma protein binding [3]; 1 µM): 77%
- Proportion unbound (Plasma protein binding [3]; 5 µM): 97%
- fraction unbound at 15 min [4]: 0.77 to 1
- half-life ([5]; mouse, in vivo, mice, once formed from ETX0282): 78 min
- %Time > f[CT] 0.25 μg/mL ([5]; oral ETX0282 10 mg/kg): 47%
- %Time > f[CT] 0.5 μg/mL ([5]; oral ETX0282 10 mg/kg): 25%
- %Time > f[CT] 1.0 μg/mL ([5]; oral ETX0282 10 mg/kg): 12%
- %Time > f[CT] 2.0 μg/mL ([5]; oral ETX0282 10 mg/kg): 8%
- %Time > f[CT] 0.25 μg/mL ([5]; oral ETX0282 50 mg/kg): 88%
- %Time > f[CT] 0.5 μg/mL ([5]; oral ETX0282 50 mg/kg): 50%
- %Time > f[CT] 1.0 μg/mL ([5]; oral ETX0282 50 mg/kg): 29%
- %Time > f[CT] 2.0 μg/mL ([5]; oral ETX0282 50 mg/kg): 28%
- %Time > f[CT] 0.25 μg/mL ([5]; oral ETX0282 200 mg/kg): 100%
- %Time > f[CT] 0.5 μg/mL ([5]; oral ETX0282 200 mg/kg): 100%
- %Time > f[CT] 1.0 μg/mL ([5]; oral ETX0282 200 mg/kg): 58%
- %Time > f[CT] 2.0 μg/mL ([5]; oral ETX0282 200 mg/kg): 35%
- %Time > f[CT] 0.25 μg/mL ([5]; oral ETX0282 400 mg/kg): 100%
- %Time > f[CT] 0.5 μg/mL ([5]; oral ETX0282 400 mg/kg): 100%
- %Time > f[CT] 1.0 μg/mL ([5]; oral ETX0282 400 mg/kg): 75%
- %Time > f[CT] 2.0 μg/mL ([5]; oral ETX0282 400 mg/kg): 38%
- fAUClast [5, 8]: 4.7 µg·h/mL
- fCmax [5, 8]: 3.9 µg/mL
- fAUClast [5, 9]: 23 µg·h/mL
- fCmax [5, 9]: 21 µg/mL
- fAUClast [5, 10]: 61 µg·h/mL
- fCmax [5, 10]: 57 µg/mL
- fAUClast [5, 11]: 73 µg·h/mL
- fCmax [5, 11]: 90 µg/mL
- Proportion unbound (Plasma protein binding [6]; 1 µM): 94%
- Proportion unbound (Plasma protein binding [6]; 5 µM): 97%
- Proportion unbound (Plasma protein binding [6]; 100 µM): 83%
- Proportion unbound (Plasma protein binding [7]; 1 µM): 88%
- Proportion unbound (Plasma protein binding [7]; 5 µM): 100%
- Proportion unbound (Plasma protein binding [7]; 100 µM): 90%
- fraction unbound at 15 min (Plasma protein binding [7]; mouse plasma, read-out: percent unbound): 0.93
